17 compounds from ChEMBL document CHEMBL2311342, “Inhibitors of the Yersinia protein tyrosine phosphatase through high throughput and virtual screening approaches” (Bioorg Med Chem Lett, 2013) can be followed below.

This assay in a line: Inhibition of Yersinia pestis YopH catalytic domain (residues 163-468) using pNPP substrate.
In the case of `Cc1c(N=c2c(=O)c3ccccc3c2=O)c(=O)n(-c2ccccc2)n1C`, the IC50 amounted to 4010 nM.

Take `NC(=S)N1N=C(c2ccc([N+](=O)[O-])cc2)/C(=N\Nc2ccc(S(=O)(=O)O)cc2)C1=O`: 4610 nM corresponded to half-maximal inhibition (IC50).

`COc1cc(/C=C2/N=C(c3ccc(Cl)c(Cl)c3)OC2=O)cc(OC)c1OC` registered an IC50 of 4480 nM.

In turn, `O=C(O)c1ccc(-c2nc(-c3ccc(-c4ccccc4)cc3)c(-c3ccc(-c4ccccc4)cc3)[nH]2)cc1` gave an IC50 of 2150 nM.

`O=C1Nc2ccc(Br)cc2/C1=C1/SC(=S)N(c2cccc(C(F)(F)F)c2)C1=O` returned an IC50 of 1220 nM.

In turn, `O=C(O)c1ccc(N2C(=O)c3ccc(-c4nc5ccccc5c(=O)o4)cc3C2=O)cc1` showed an IC50 of 1920 nM.

Consider `CCCCN1C(=O)/C(=C2\SC(N3CCC(C(N)=O)CC3)=NC2=O)c2ccccc21`, for which the half-maximal inhibitory concentration (IC50) is 1680 nM.

For the compound `CN1C(=O)C(=Cc2cn(Cc3cnc(Cl)s3)c3ccccc23)C(=O)N(C)C1=O`, half-maximal inhibition (IC50) was put at 4610 nM.

In the case of `O=C1NC(=S)NC(=O)C1=Cc1ccc(N2CCc3ccccc3C2)c([N+](=O)[O-])c1`, 4730 nM corresponded to half-maximal inhibition (IC50).

In turn, `O=C(COc1ccccc1)N1CCN(S(=O)(=O)c2ccccc2[N+](=O)[O-])CC1` returned an IC50 of 980 nM.

On to `O=C1NC(=O)C(=Cc2ccc(OCc3ccc([N+](=O)[O-])cc3)c(Br)c2)C(=O)N1`, for which the midpoint of inhibition, the IC50, lay at 1890 nM.

On to `Cn1nc(-c2ccc(Cl)cc2)nc2c(=O)n(C)c(=O)nc1-2`, for which the concentration for half-maximal inhibition (IC50) stood at 1280 nM.

For the compound `Cn1nc(-c2cccs2)nc2c(=O)n(C)c(=O)nc1-2`, the midpoint of inhibition, the IC50, lay at 880 nM.

`CN1C(=O)C(=Cc2ccc(OCc3c(F)cccc3Cl)cc2)C(=O)N(C)C1=O` showed a half-inhibitory concentration (IC50) of 9890 nM.

In turn, `Cc1c(/C(=N/OC(=O)c2ccc(F)cc2)C(F)(F)F)cc(-c2ccc(S(C)(=O)=O)cc2)n1-c1ccc(F)cc1` came in with an IC50 of 2350 nM.

As for `O=C(O)c1cc(-c2ccc(/C=N/Nc3nc4nonc4nc3Nc3ccc(F)cc3)o2)ccc1O`, it took 380 nM to reach half-maximal inhibition (IC50).

In turn, `O=C1OC(c2ccc(Cl)cc2)=N/C1=C/Nc1ccc(O)c(C(=O)O)c1` returned a half-maximal inhibitory concentration (IC50) of 8100 nM.

Broadly, the IC50 is the concentration that gives 50% inhibition. A low value points to inhibition by little substance.
